Literature values as cited in patent US20070026067A1, “Liquid formulations for controlled delivery of benzisoxazole derivatives” (priority 2005, published 2007).

Columns and labels:
[1] = in vivo

| half-life [1] | SMILES | solubility in water |
| --- | --- | --- |
| about one | Cc1nc2n(c(=O)c1CCN1CCC(c3noc4cc(F)ccc34)CC1)CCCC2O (stereo not drawn) [Paliperidone] | practically insoluble |
| – | Cc1nc2n(c(=O)c1CCN1CCC(c3noc4cc(F)ccc34)CC1)CCCC2 [Risperidone] | practically insoluble |
